In ChEMBL document CHEMBL1154035, “Synthesis, characterization, and anti-melanoma activity of tetra-O-substituted analogs of nordihydroguaiaretic acid” (Bioorg Med Chem Lett, 2009):

System: Mus musculus
Experiment: Toxicity in ip dosed mouse
Assay type: organism-based
Conditions: in vivo

Row | Compound | LD50 [mg/kg]
1 | COc1ccc(C[C@@H](C)[C@@H](C)Cc2ccc(OC)c(OC)c2)cc1OC [TERAMEPROCOL] | 1000
2 | CC(Cc1ccc(O)c(O)c1)C(C)Cc1ccc(O)c(O)c1 (configuration not stated) [NORDIHYDROGUAIARETIC ACID] | 75
